Data as given in ChEMBL document CHEMBL3044672, “N9- and N7-(Chloromethyl Phenymethyl)Chloropurine Derivatives from , '-Dichloroxylenes: Synthesis and Anticancer Activity” (2005).

Key:
Assay type in all cases: functional
NCI-H226 = test: Cytotoxicity against Homo sapiens (human) NCI-H226 cells after 48 hr by sulforhodamine B assay; conditions: NCI-H226, 48 h; for CC50: read-out: LC50 (the source's name)
OVCAR-4 = test: Cytotoxicity against Homo sapiens (human) OVCAR4 cells after 48 hr by sulforhodamine B assay; conditions: OVCAR-4, 48 h
COLO 205 = test: Cytotoxicity against Homo sapiens (human) COLO205 cells after 48 hr by sulforhodamine B assay; conditions: COLO 205, 48 h; for CC50: read-out: LC50 (the source's name)
K562 = test: Cytotoxicity against Homo sapiens (human) K562 cells after 48 hr by sulforhodamine B assay; conditions: K562, 48 h; for CC50: read-out: LC50 (the source's name)
HCT-116 = test: Cytotoxicity against Homo sapiens (human) HCT116 cells after 48 hr by sulforhodamine B assay; conditions: HCT-116, 48 h; for CC50: read-out: LC50 (the source's name)
KM12 = test: Cytotoxicity against Homo sapiens (human) KM12 cells after 48 hr by sulforhodamine B assay; conditions: KM12, 48 h; for CC50: read-out: LC50 (the source's name)
MCF7 = test: Cytotoxicity against Homo sapiens (human) MCF7 cells after 48 hr by sulforhodamine B assay; conditions: MCF7, 48 h
NCI-H460 = test: Cytotoxicity against Homo sapiens (human) NCI-H460 cells assessed as cell growth at 10^-4 M after 48 hr by Alamar blue assay; conditions: NCI-H460, 48 h, read-out: Activity
HCT-15 = test: Cytotoxicity against Homo sapiens (human) HCT15 cells after 48 hr by sulforhodamine B assay; conditions: HCT-15, 48 h; for CC50: read-out: LC50 (the source's name)
RPMI-8226 = test: Cytotoxicity against Homo sapiens (human) RPMI8226 cells after 48 hr by sulforhodamine B assay; conditions: RPMI-8226, 48 h; for CC50: read-out: LC50 (the source's name)
CCRF-CEM = test: Cytotoxicity against Homo sapiens (human) CCRF-CEM cells after 48 hr by sulforhodamine B assay; conditions: for CC50: read-out: LC50 (the source's name)
MDA-MB-435 = test: Cytotoxicity against Homo sapiens (human) MDA-MB-435 cells after 48 hr by sulforhodamine B assay; conditions: MDA-MB-435, 48 h
U-251 = test: Cytotoxicity against Homo sapiens (human) U251 cells after 48 hr by sulforhodamine B assay; conditions: U-251, 48 h
SW-620 = test: Cytotoxicity against Homo sapiens (human) SW620 cells after 48 hr by sulforhodamine B assay; conditions: SW-620, 48 h; for CC50: read-out: LC50 (the source's name)
SF-539 = test: Cytotoxicity against Homo sapiens (human) SF539 cells after 48 hr by sulforhodamine B assay; conditions: SF-539, 48 h
OVCAR-8 = test: Cytotoxicity against Homo sapiens (human) OVCAR8 cells after 48 hr by sulforhodamine B assay; conditions: OVCAR-8, 48 h
A498 = test: Cytotoxicity against Homo sapiens (human) A498 cells after 48 hr by sulforhodamine B assay; conditions: A498, 48 h
UO-31 = test: Cytotoxicity against Homo sapiens (human) UO31 cells after 48 hr by sulforhodamine B assay; conditions: UO-31, 48 h
NCI-H522 = test: Cytotoxicity against Homo sapiens (human) NCI-H522 cells after 48 hr by sulforhodamine B assay; conditions: NCI-H522, 48 h; for CC50: read-out: LC50 (the source's name)
BT-549 = test: Cytotoxicity against Homo sapiens (human) BT549 cells after 48 hr by sulforhodamine B assay; conditions: BT-549, 48 h
SK-MEL-28 = test: Cytotoxicity against Homo sapiens (human) SK-MEL-28 cells after 48 hr by sulforhodamine B assay; conditions: SK-MEL-28, 48 h
HT-29 = test: Cytotoxicity against Homo sapiens (human) HT-29 cells after 48 hr by sulforhodamine B assay; conditions: HT-29, 48 h; for CC50: read-out: LC50 (the source's name)
PC-3 = test: Cytotoxicity against Homo sapiens (human) PC3 cells after 48 hr by sulforhodamine B assay; conditions: PC-3, 48 h
OVCAR-3 = test: Cytotoxicity against Homo sapiens (human) OVCAR3 cells after 48 hr by sulforhodamine B assay; conditions: OVCAR-3, 48 h
SN12C = test: Cytotoxicity against Homo sapiens (human) SN12C cells after 48 hr by sulforhodamine B assay
SF-268 = test: Cytotoxicity against Homo sapiens (human) SF268 cells assessed as cell growth at 10^-4 M after 48 hr by […] assay; conditions: SF-268, 48 h, read-out: Activity
SNB-75 = test: Cytotoxicity against Homo sapiens (human) SNB75 cells after 48 hr by sulforhodamine B assay; conditions: SNB-75, 48 h; for CC50: read-out: LC50 (the source's name)

ClCc1ccccc1Cn1cnc2c(Cl)ncnc21
GI50 (NCI-H226): 4.57 µM | TGI (NCI-H226): 12.6 µM | CC50 (NCI-H226): 38.9 µM | GI50 (OVCAR-4): 3.38 µM | LC50 (concentration killing 50% of cells) (OVCAR-4): 45.7 µM | TGI (OVCAR-4): 12.3 µM | GI50 (COLO 205): 3.89 µM | TGI (COLO 205): > 100 µM | CC50 (COLO 205): > 100 µM | GI50 (K562): 1.2 µM | TGI (K562): 5.12 µM | CC50 (K562): > 100 µM | GI50 (HCT-116): 1.9 µM | TGI (HCT-116): 3.71 µM | CC50 (HCT-116): 7.08 µM | GI50 (KM12): 16.6 µM | TGI (KM12): 33.1 µM | CC50 (KM12): 66.1 µM | GI50 (MCF7): 11 µM | LC50 (concentration killing 50% of cells) (MCF7): > 100 µM | TGI (MCF7): > 100 µM | growth at 100 µM (NCI-H460): 0% | GI50 (HCT-15): 2.09 µM | TGI (HCT-15): 4.67 µM | CC50 (HCT-15): 43.6 µM | GI50 (RPMI-8226): 14.1 µM | TGI (RPMI-8226): 40.7 µM | CC50 (RPMI-8226): > 100 µM | GI50 (CCRF-CEM): 1.28 µM | TGI (CCRF-CEM): 3.23 µM | CC50 (CCRF-CEM): 8.12 µM | GI50 (MDA-MB-435): 3.02 µM | LC50 (MDA-MB-435): 36.3 µM | TGI (MDA-MB-435): 9.55 µM | GI50 (U-251): 2.63 µM | LC50 (concentration killing 50% of cells) (U-251): 61.7 µM | TGI (U-251): 6.16 µM | GI50 (SW-620): 1.77 µM | TGI (SW-620): 5.01 µM | CC50 (SW-620): 26.3 µM | GI50 (SF-539): 10.7 µM | LC50 (concentration killing 50% of cells) (SF-539): 55 µM | TGI (SF-539): 24 µM | GI50 (OVCAR-8): 2.24 µM | LC50 (concentration killing 50% of cells) (OVCAR-8): 20.4 µM | TGI (OVCAR-8): 5.24 µM | GI50 (A498): 17.4 µM | LC50 (lethal concentration, 50% cell kill) (A498): 58.9 µM | TGI (A498): 32.4 µM | GI50 (UO-31): 2.63 µM | LC50 (concentration causing 50% net cell kill) (UO-31): 61.7 µM | TGI (UO-31): 10.5 µM | GI50 (NCI-H522): 1.82 µM | TGI (NCI-H522): 7.24 µM | CC50 (NCI-H522): > 100 µM | GI50 (BT-549): 1.99 µM | LC50 (50% lethal concentration) (BT-549): 19.9 µM | TGI (BT-549): 5.49 µM | GI50 (SK-MEL-28): 2.29 µM | LC50 (concentration killing 50% of cells) (SK-MEL-28): 24.6 µM | TGI (SK-MEL-28): 5.49 µM | GI50 (HT-29): 3.54 µM | TGI (HT-29): > 100 µM | CC50 (HT-29): > 100 µM | GI50 (PC-3): 3.02 µM | LC50 (concentration causing 50% cell kill) (PC-3): 53.7 µM | TGI (PC-3): 10.5 µM | GI50 (OVCAR-3): 1.41 µM | LC50 (OVCAR-3): 8.91 µM | TGI (OVCAR-3): 3.54 µM | GI50 (SN12C): 3.38 µM | LC50 (50% lethal concentration) (SN12C): 95.5 µM | TGI (SN12C): 8.71 µM | growth at 100 µM (SF-268): 0% | GI50 (SNB-75): 2.88 µM | TGI (SNB-75): 11 µM | CC50 (SNB-75): 39.8 µM

ClCc1cccc(Cn2cnc3ncnc(Cl)c32)c1
GI50 (NCI-H226): 3.16 µM | TGI (NCI-H226): 8.7 µM | CC50 (NCI-H226): 9.33 µM | GI50 (OVCAR-4): 4.16 µM | LC50 (concentration killing 50% of cells) (OVCAR-4): 46.8 µM | TGI (OVCAR-4): 15.8 µM | GI50 (COLO 205): 2.63 µM | TGI (COLO 205): > 100 µM | CC50 (COLO 205): 6.3 µM | GI50 (K562): 16.6 µM | TGI (K562): 47.9 µM | CC50 (K562): > 100 µM | GI50 (HCT-116): 1.77 µM | TGI (HCT-116): 5.24 µM | CC50 (HCT-116): 9.54 µM | GI50 (KM12): 1.86 µM | TGI (KM12): 3.31 µM | CC50 (KM12): 67.6 µM | GI50 (MCF7): 1.58 µM | LC50 (concentration killing 50% of cells) (MCF7): 39 µM | TGI (MCF7): 3.98 µM | growth at 100 µM (NCI-H460): 0% | GI50 (HCT-15): 1.94 µM | TGI (HCT-15): 4.36 µM | CC50 (HCT-15): > 100 µM | GI50 (RPMI-8226): 13.8 µM | TGI (RPMI-8226): 34.7 µM | CC50 (RPMI-8226): 89.1 µM | GI50 (CCRF-CEM): 6.91 µM | TGI (CCRF-CEM): 22.4 µM | CC50 (CCRF-CEM): 60.2 µM | GI50 (MDA-MB-435): 3.46 µM | LC50 (MDA-MB-435): 39.8 µM | TGI (MDA-MB-435): 12.9 µM | GI50 (U-251): 1.94 µM | LC50 (concentration killing 50% of cells) (U-251): > 100 µM | TGI (U-251): 3.98 µM | GI50 (SW-620): 15.1 µM | TGI (SW-620): 32.4 µM | CC50 (SW-620): 7.41 µM | GI50 (SF-539): 19.9 µM | TGI (SF-539): 36.3 µM | GI50 (OVCAR-8): 3.09 µM | LC50 (concentration killing 50% of cells) (OVCAR-8): 60.2 µM | TGI (OVCAR-8): 14.8 µM | GI50 (A498): 18.2 µM | LC50 (lethal concentration, 50% cell kill) (A498): 6.6 µM | TGI (A498): 36.3 µM | GI50 (UO-31): 1.54 µM | LC50 (concentration causing 50% net cell kill) (UO-31): 26.9 µM | TGI (UO-31): 3.09 µM | GI50 (NCI-H522): 6.16 µM | TGI (NCI-H522): 24 µM | CC50 (NCI-H522): > 100 µM | GI50 (BT-549): 13.2 µM | LC50 (50% lethal concentration) (BT-549): 63.1 µM | TGI (BT-549): 28.8 µM | GI50 (SK-MEL-28): 1.81 µM | LC50 (concentration killing 50% of cells) (SK-MEL-28): 42.6 µM | TGI (SK-MEL-28): 3.54 µM | GI50 (HT-29): 2.88 µM | TGI (HT-29): > 100 µM | CC50 (HT-29): 6.02 µM | GI50 (PC-3): 2.13 µM | LC50 (concentration causing 50% cell kill) (PC-3): 63.1 µM | TGI (PC-3): 5.37 µM | GI50 (OVCAR-3): 1.77 µM | LC50 (OVCAR-3): 43.6 µM | TGI (OVCAR-3): 3.23 µM | GI50 (SN12C): 7.07 µM | LC50 (50% lethal concentration) (SN12C): 6.16 µM | TGI (SN12C): 20.4 µM | growth at 100 µM (SF-268): 0% | GI50 (SNB-75): 1.86 µM | TGI (SNB-75): 3.54 µM | CC50 (SNB-75): 7.94 µM
